Patent US20150105252A1, “SUBSTITUTED PYRAZOLES AS HERBICIDES” (E I DU PONT DE NEMOURS AND COMPANY, priority 2013, published 2015)

What was measured:
Assay in all cases: Test C postemergence
lambsquarters = assay type: in vivo, Chenopodium album
Description: (§1) Seeds of plant species selected from blackgrass (Alopecurus myosuroides), ryegrass, Italian (Italian ryegrass, Lolium multiflorum), wheat (winter wheat, Triticum aestivum), galium (catchweed bedstraw, Galium aparine), corn (Zea mays), crabgrass, large (large crabgrass, Digitaria sanguinalis), foxtail, giant (giant foxtail, Setaria faberii), johnsongrass (Sorghum halepense), lambsquarters (Chenopodium album), morningglory (Ipomoea coccinea), nutsedge, yellow (yellow nutsedge, Cyperus esculentus), pigweed (redroot pigweed, Amaranthus retroflexus), ragweed (common ragweed, Ambrosia elation), soybean (Glycine max), barnyardgrass (Echinochloa crus-galli), oilseed rape (Brassica napus), waterhemp (common waterhemp, Amaranthus rudis), oat, wild (wild oat, Avena fatua), kochia (Kochia scoparia), Surinam grass (Brachiaria decumbens), foxtail, green (green foxtail, Setaria viridis), goosegrass (Eleusine indica), bromegrass, downy (downy bromegrass, Bromus tectorum), nightshade (eastern black nightshade, Solanum ptycanthum), cocklebur (common cocklebur, Xanthium strumarium), cupgrass, woolly (woolly cupgrass, Eriochloa villosa), bermudagrass (Cynodon dactylon), sunflower, (common oilseed sunflower, Helianthus annuus), Russian thistle (Salsola kali), and velvetleaf (Abutilon theophrasti) were planted into a blend of loam soil and sand and treated preemergence with test chemicals formulated in a non-phytotoxic solvent mixture which included a surfactant.
(§2) At the same time, plants selected from these crop and weed species and also chickweed (common chickweed, Stellaria media), canarygrass (littleseed canarygrass, Phalaris minor), and deadnettle (henbit deadnettle, Lamium amplexicaule), were planted in pots containing Redi-Earth® planting medium (Scotts Company, 14111 Scottslawn Road, Marysville, Ohio 43041) comprising spaghnum peat moss, vermiculite, wetting agent and starter nutrients and treated with postemergence applications of test chemicals formulated in the same manner. Plants ranged in height from 2 to 18 cm (1- to 4-leaf stage) for postemergence treatments. Treated plants and controls were maintained in a greenhouse for 13 to 15 days, after which time all species were compared to controls and visually evaluated. Plant response ratings, summarized in Table C, are based on a scale of 0 to 100 where 0 is no effect and 100 is complete control. A dash (-) response means no test result.

wheat = assay type: in vivo, Triticum aestivum
Description: as §1, §2

nutsedge, yellow = assay type: in vivo, Cyperus esculentus
Description: as §1, §2

corn = assay type: in vivo, Zea mays
Description: as §1, §2

ryegrass, Italian = assay type: in vivo, Lolium multiflorum
Description: as §1, §2

ragweed = assay type: in vivo, Ambrosia elation
Description: as §1, §2

soybean = assay type: in vivo, Glycine max
Description: as §1, §2

pigweed = assay type: in vivo, Amaranthus retroflexus
Description: as §1, §2

kochia = assay type: in vivo, Kochia scoparia
Description: as §1, §2

oilseed rape = assay type: in vivo, Brassica napus
Description: as §1, §2

waterhemp = assay type: in vivo, Amaranthus rudis
Description: as §1, §2

foxtail, giant = assay type: in vivo, Setaria faberii
Description: as §1, §2

barnyardgrass = assay type: in vivo, Echinochloa crus-galli
Description: as §1, §2

oat, wild = assay type: in vivo, Avena fatua
Description: as §1, §2

galium = assay type: in vivo, Galium aparine
Description: as §1, §2

[1] = Postemergence, 31 g ai/ha, visually evaluated after 13 to 15 days
[2] = postemergence, 62 g ai/ha, scale 0 to 100
[3] = postemergence, 250 g ai/ha, scale 0 to 100 (0 no effect, 100 complete control)
[4] = postemergence, 125 g ai/ha, scale 0 to 100, 0 no effect, 100 complete control

CCCc1cc(C(=O)NCC)nn1Cc1ccnc(C(F)(F)F)c1 [Compound 95]
80: Lambsquarters plant response rating (lambsquarters; [2]) | Plant response rating, Soybean (soybean; [4]) | Galium plant response rating (galium; [2])
20: Plant response rating, Wheat (wheat; [3])
10: Plant response rating, Wheat (wheat; [4]) | Plant response rating, Nutsedge, Yellow (nutsedge, yellow; [3]) | Corn plant response rating (corn; [2]) | Plant response rating, Corn (corn; [3]) | Plant response rating, Corn (corn; [4]) | Plant response rating (scale of 0 to 100 where 0 is no effect and 100 is complete control), Pigweed (pigweed; [1])
40: Plant response rating (scale of 0 to 100 where 0 is no effect and 100 is complete control), Lambsquarters (lambsquarters; [1]) | Pigweed plant response rating (pigweed; [2]) | Plant response rating, Pigweed (pigweed; [4]) | Foxtail, Giant plant response rating (foxtail, giant; [2])
0: Plant response rating (scale of 0 to 100 where 0 is no effect and 100 is complete control), Nutsedge, Yellow (nutsedge, yellow; [1]) | Nutsedge, Yellow plant response rating (nutsedge, yellow; [2]) | Plant response rating (scale of 0 to 100 where 0 is no effect and 100 is complete control), Barnyardgrass (barnyardgrass; [1]) | Barnyardgrass plant response rating (barnyardgrass; [2]) | Plant response rating, Barnyardgrass (barnyardgrass; [4])
30: Plant response rating, Ryegrass, Italian (ryegrass, Italian; [3]) | Plant response rating (scale of 0 to 100 where 0 is no effect and 100 is complete control), Oilseed Rape (oilseed rape; [1]) | Oilseed Rape plant response rating (oilseed rape; [2]) | Plant response rating (scale of 0 to 100 where 0 is no effect and 100 is complete control), Waterhemp (waterhemp; [1]) | Waterhemp plant response rating (waterhemp; [2]) | Plant response rating, Waterhemp (waterhemp; [3]) | Plant response rating, Waterhemp (waterhemp; [4]) | Plant response rating, Barnyardgrass (barnyardgrass; [3])
5: Plant response rating (scale of 0 to 100 where 0 is no effect and 100 is complete control), Wheat (wheat; [1]) | Wheat plant response rating (wheat; [2]) | Plant response rating, Nutsedge, Yellow (nutsedge, yellow; [4]) | Plant response rating (scale of 0 to 100 where 0 is no effect and 100 is complete control), Corn (corn; [1]) | Plant response rating (scale of 0 to 100 where 0 is no effect and 100 is complete control), Ryegrass, Italian (ryegrass, Italian; [1]) | Ryegrass, Italian plant response rating (ryegrass, Italian; [2]) | Plant response rating, Ryegrass, Italian (ryegrass, Italian; [4]) | Plant response rating (scale of 0 to 100 where 0 is no effect and 100 is complete control), Foxtail, Giant (foxtail, giant; [1]) | Plant response rating (scale of 0 to 100 where 0 is no effect and 100 is complete control), Oat, Wild (oat, wild; [1]) | Oat, Wild plant response rating (oat, wild; [2])
98: Plant response rating, Lambsquarters (lambsquarters; [3])
15: Plant response rating, Oat, Wild (oat, wild; [4])
50: Ragweed plant response rating (ragweed; [2]) | Plant response rating, Ragweed (ragweed; [4]) | Soybean plant response rating (soybean; [2]) | Plant response rating (scale of 0 to 100 where 0 is no effect and 100 is complete control), Kochia (kochia; [1]) | Plant response rating, Oilseed Rape (oilseed rape; [3]) | Plant response rating, Oilseed Rape (oilseed rape; [4]) | Plant response rating, Oat, Wild (oat, wild; [3])
45: Plant response rating (scale of 0 to 100 where 0 is no effect and 100 is complete control), Ragweed (ragweed; [1]) | Plant response rating (scale of 0 to 100 where 0 is no effect and 100 is complete control), Soybean (soybean; [1]) | Plant response rating, Foxtail, Giant (foxtail, giant; [4])
85: Plant response rating, Ragweed (ragweed; [3]) | Plant response rating, Kochia (kochia; [3]) | Plant response rating, Kochia (kochia; [4])
90: Plant response rating, Lambsquarters (lambsquarters; [4]) | Plant response rating, Galium (galium; [3]) | Plant response rating, Galium (galium; [4])
60: Plant response rating, Foxtail, Giant (foxtail, giant; [3]) | Plant response rating (scale of 0 to 100 where 0 is no effect and 100 is complete control), Galium (galium; [1])
70: Plant response rating, Pigweed (pigweed; [3]) | Kochia plant response rating (kochia; [2])
